The structures appear in SMILES notation.

The subject of the experiment is swine adipose tissue. Briefly: Inhibition of lipogenesis (uptake of radioactive carbon from glucose-U^14 C into lipid) in swine adipose tissue slices. It is filed as cell-based. To be noted: 100 micrograms per milliliter, 37° C., 2 hours, 5% DMSO, with insulin, triplicate. An excerpt: The manner in which they cause this effect is not known with certainty; it is believed that they interfere with the synthesis of fatty acids in the tissues. Their effectiveness for this purpose has been ascertained by immersing samples of swine adipose tissue in a liquid medium containing radioactive glucose and the test chemical for a period of time, then isolating the lipid from the treated tissue and determining the up-take of the radioactive carbon by means of scintillation counting techniques. These tests were conducted in swine adipose tissue because in swine, the primary site of lipogenesis--i.e., fatty acid synthesis--appears to be adipose tissue.
Described in more detail, the tests were conducted according to the following general procedure.
150 milligrams of slices of swine adipose tissue were incubated at 37° C. for 2 hours with shaking in 3 milliliters of Krebs-Ringer bicarbonate solution containing one-half the normal calcium ion concentration, 60 micromoles of glucose, 0.5 micro-Curie of glucose-U^14 C, and 300 microunits of insulin, and 5% dimethyl sulfoxide (DMSO). The test compounds were added as a solution or suspension in DMSO and were present at a concentration of 100 micrograms per milliliter of the incubation mixture.
The incubation was terminated by addition of 0.25 milliliter of 1 N sulfuric acid. The resulting mixture was extracted with a total of 25 milliliters of chloroform:methanol (2:1, v/v). The extracts were washed according to Folch et al. (J. Biol. Chem., 226, 497-509, (1957)), air dried, and counted in a liquid scintillation counter with 15 milliliters of counting fluid (two parts toluene containing 0.4% w/v New England Nuclear Omnifluor: 1 part Triton X-100). The tests were conducted in triplicate and were accompanied by control tests in which all ingredients,proportions and conditions were the same except that no test compound was included. From the data obtained were calculated the percent inhibition of lipid synthesis by the test compound in each case. The data obtained from the tests are set out in Table 1, as the percent inhibition of lipogenesis compared to the results obtained in the control tests wherein only the test compound was omitted.
Consider `C=CCNC(=O)C1CSc2cc(C)ccc2O1` (centres unmarked) [Compound 2, 2,3-Dihydro-6-methyl-N-(2-propenyl)-1,4-benzoxathiin-2-carboxamide], for which the “Percent Inhibition (of lipogenesis compared to control tests)” value (“Percent Inhibition” for short) is reported as 63%.

For `C=CCNC(=O)C1CSc2cc(C(F)(F)F)ccc2O1` (centres unmarked) [Compound 4, 6-(Trifluoromethyl)-2,3-dihydro-N-(2-propenyl)-1,4-benzoxathiin-2-carboxamide], the “Percent Inhibition” value was found to be 30%.

For the compound `C=CCNC(=O)C1CSc2ccc(C)cc2O1` (centres unmarked) [Compound 8, 2,3-Dihydro-7-methyl-N-(2-propenyl)-1,4-benzoxathiin-2-carboxamide], the “Percent Inhibition” value is given as 26%. Under `C=CCNC(=O)C1CSc2cc(N)ccc2O1` (centres unmarked) [Compound 6, 6-Amino-2,3-dihydro-N-(2-propenyl)-1,4-benzoxathiin-2-carboxamide] stands 29%; under `C=CCNC(=O)C1CSc2cc(NS(C)(=O)=O)ccc2O1` (centres unmarked) [Compound 7, 6-Methylsulfonamido-3,4-dihydro-N-(2-propenyl)-1,4-benzoxathiin-2-carboxamide], 46%.

Turning to `C=CCNC(=O)C1CSc2cc([N+](=O)[O-])ccc2O1` (centres unmarked) [Compound 5, 6-Nitro-2,3-dihydro-N-(2-propenyl)-1,4-benzoxathiin-2-carboxamide], the “Percent Inhibition” value was 45%. Consider `C=CCNC(=O)C1CSc2ccccc2O1` (centres unmarked) [Compound 1, 2,3-Dihydro-N-(2-propenyl)-1,4-benzoxathiin-2-carboxamide], for which the “Percent Inhibition” value amounted to 63%. For the compound `C=CCNC(=O)C1CSc2cc(Cl)ccc2O1` (centres unmarked) [Compound 3, 6-Chloro-2,3-dihydro-N-(2-propenyl)-1,4-benzoxathiin-2-carboxamide], the “Percent Inhibition” value amounted to 54%.
